Results from patent US20150322120A1 (priority 2012, published 2015).
Positions of bridges follow the written chain, without caps; N, C: chain ends. Non-standard residues stand in square brackets, D forms with d. Residues, ends and D or L forms follow the SMILES beside them. Chains are numbered I, II in the order given. No end group written: not given here. *: point of attachment. Glutathionyl = N[C@@H](CCC(=O)N[C@@H](CS*)C(=O)NCC(=O)O)C(=O)O; Hyp = O=C(O)[C@@H]1C[C@@H](O)CN1

Tests used:
rNav 1.7 = rNav 1.7 (Rattus norvegicus, UniProt O08562); assay: cell-based; type: cell-based
hNaV1.7 = hNaV1.7 (Homo sapiens, UniProt Q15858); type: cell-based
[1] = read-out: rNav 1.7 % block peptide concentration

Chain of rNav 1.7 (O08562 whole entry, looked up): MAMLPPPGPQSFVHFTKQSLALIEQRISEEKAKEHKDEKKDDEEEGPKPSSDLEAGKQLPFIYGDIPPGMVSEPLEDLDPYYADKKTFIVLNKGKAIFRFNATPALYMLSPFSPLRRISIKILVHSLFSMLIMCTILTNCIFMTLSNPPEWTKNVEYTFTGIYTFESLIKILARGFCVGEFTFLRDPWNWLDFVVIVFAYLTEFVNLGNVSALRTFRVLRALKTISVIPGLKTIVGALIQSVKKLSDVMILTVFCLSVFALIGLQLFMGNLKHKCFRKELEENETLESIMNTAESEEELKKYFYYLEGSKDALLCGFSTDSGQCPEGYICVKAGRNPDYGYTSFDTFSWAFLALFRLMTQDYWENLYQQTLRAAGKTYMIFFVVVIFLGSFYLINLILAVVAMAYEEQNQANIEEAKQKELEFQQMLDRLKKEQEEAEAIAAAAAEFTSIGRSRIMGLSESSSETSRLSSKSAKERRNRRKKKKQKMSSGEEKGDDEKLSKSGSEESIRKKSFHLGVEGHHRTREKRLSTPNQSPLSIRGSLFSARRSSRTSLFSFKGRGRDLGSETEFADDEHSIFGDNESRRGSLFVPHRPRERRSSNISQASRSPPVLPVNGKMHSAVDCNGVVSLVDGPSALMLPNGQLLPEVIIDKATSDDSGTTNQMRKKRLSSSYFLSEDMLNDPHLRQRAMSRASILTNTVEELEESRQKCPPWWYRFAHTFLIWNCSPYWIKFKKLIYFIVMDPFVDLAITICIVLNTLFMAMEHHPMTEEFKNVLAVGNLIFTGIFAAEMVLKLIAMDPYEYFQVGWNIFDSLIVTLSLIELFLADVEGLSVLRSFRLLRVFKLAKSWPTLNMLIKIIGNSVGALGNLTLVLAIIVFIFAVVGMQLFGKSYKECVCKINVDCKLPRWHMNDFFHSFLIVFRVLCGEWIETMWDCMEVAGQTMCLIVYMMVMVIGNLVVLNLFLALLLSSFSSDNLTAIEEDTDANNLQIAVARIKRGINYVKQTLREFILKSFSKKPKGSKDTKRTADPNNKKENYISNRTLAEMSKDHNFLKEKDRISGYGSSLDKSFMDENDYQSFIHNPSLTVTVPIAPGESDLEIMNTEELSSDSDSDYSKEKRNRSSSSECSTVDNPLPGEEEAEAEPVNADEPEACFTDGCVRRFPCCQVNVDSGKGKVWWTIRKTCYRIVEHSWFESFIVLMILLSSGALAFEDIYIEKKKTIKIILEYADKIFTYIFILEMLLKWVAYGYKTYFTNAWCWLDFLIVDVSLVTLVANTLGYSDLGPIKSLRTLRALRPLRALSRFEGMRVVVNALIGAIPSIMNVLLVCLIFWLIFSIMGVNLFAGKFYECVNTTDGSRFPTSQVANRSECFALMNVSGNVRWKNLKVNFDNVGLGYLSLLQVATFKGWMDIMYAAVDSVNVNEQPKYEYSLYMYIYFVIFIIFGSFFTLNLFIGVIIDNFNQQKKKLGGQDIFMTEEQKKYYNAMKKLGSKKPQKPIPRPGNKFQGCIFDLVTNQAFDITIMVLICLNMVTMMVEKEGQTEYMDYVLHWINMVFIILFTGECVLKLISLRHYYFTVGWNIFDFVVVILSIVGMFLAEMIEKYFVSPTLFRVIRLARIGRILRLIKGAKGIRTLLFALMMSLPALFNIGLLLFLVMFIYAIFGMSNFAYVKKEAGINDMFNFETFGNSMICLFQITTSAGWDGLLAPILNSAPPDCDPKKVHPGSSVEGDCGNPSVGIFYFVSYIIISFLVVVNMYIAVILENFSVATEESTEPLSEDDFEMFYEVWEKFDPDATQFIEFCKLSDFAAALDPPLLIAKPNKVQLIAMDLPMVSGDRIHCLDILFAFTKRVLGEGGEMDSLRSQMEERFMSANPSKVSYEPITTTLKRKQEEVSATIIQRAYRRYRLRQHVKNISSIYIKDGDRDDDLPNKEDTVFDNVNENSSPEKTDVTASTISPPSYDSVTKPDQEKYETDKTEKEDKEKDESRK
Chain of hNaV1.7 (Q15858 whole entry, looked up): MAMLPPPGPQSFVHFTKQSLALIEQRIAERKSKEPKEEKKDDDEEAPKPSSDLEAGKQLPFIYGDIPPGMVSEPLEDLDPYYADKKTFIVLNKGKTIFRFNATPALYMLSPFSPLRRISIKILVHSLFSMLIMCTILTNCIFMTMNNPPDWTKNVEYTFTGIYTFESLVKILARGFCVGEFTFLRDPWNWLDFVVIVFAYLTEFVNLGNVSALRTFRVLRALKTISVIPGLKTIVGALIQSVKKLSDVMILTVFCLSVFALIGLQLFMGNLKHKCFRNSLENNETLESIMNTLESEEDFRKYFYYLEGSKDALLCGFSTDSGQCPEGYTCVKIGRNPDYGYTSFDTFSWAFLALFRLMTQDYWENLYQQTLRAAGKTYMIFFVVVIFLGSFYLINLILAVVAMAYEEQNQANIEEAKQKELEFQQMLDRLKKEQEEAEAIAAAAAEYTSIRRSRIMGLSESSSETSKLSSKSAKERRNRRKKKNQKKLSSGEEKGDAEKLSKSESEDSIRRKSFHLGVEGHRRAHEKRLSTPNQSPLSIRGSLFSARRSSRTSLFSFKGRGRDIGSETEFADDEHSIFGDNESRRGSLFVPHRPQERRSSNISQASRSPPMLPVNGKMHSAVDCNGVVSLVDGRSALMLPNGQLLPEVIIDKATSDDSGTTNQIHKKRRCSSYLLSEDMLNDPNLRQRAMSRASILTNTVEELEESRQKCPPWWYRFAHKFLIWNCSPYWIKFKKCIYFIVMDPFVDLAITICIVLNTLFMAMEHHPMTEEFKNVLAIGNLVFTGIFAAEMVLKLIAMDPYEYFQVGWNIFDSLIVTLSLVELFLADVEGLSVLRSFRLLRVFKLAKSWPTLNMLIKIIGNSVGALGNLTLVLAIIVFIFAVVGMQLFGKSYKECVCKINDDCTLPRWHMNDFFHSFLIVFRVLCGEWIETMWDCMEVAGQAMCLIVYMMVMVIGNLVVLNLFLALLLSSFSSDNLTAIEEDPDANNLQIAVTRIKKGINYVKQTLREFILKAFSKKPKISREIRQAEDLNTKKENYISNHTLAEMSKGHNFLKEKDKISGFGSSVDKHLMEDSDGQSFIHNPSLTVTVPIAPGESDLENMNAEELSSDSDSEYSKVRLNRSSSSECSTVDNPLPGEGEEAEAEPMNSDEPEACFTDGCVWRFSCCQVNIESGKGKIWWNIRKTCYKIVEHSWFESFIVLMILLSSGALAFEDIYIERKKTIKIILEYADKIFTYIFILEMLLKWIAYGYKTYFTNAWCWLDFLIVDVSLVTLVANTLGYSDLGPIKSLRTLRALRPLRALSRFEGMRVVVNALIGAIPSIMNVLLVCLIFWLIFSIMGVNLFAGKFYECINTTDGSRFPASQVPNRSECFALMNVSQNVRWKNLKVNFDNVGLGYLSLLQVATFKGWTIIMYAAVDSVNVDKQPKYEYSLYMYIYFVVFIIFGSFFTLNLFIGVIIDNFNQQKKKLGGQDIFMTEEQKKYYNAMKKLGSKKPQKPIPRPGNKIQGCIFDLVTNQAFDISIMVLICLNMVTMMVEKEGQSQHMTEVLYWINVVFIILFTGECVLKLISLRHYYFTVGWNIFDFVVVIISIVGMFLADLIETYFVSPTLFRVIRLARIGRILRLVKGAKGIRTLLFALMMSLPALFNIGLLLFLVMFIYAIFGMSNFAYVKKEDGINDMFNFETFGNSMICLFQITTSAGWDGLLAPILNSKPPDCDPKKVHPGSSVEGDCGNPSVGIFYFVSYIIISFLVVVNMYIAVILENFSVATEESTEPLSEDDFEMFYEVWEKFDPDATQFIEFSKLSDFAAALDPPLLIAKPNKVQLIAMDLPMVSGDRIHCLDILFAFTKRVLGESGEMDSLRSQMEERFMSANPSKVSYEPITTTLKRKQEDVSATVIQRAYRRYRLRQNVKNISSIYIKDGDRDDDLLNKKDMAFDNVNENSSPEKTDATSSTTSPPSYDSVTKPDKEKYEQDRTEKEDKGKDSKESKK

Row | Compound | inhibition at 33 µM (rNav 1.7; [1]) [%] | also measured
1 | CC(=O)NCSC[C@@H]1NC(=O)[C@H](CC(=O)O)NC(=O)[C@@H]2CSSC[C@@H]3NC(=O)[C@H]([C@@H](C)O)NC(=O)[C@H](C)NC(=O)CNC(=O)[C@@H]4C[C@@H](O)CN4C(=O)[C@H](CC(=O)O)NC(=O)CNC(=O)[C@@H](NC(=O)[C@H](Cc4c[nH]c5ccccc45)NC(=O)CN)CSSC[C@H](NC(=O)[C@H](CSSC[C@@H](C(=O)N[C@@H](CCCCN)C(=O)N[C@@H](CC(=O)O)C(=O)N[C@@H](CCCCN)C(=O)N[C@@H](CO)C(=O)N[C@@H](CO)C(=O)N[C@@H](C)C(=O)O)NC(=O)[C@H]([C@@H](C)O)NC(=O)[C@H](CCCCN)NC(=O)[C@H]([C@@H](C)O)NC(=O)[C@H](Cc4ccc(O)cc4)NC1=O)NC(=O)[C@H](Cc1ccc(O)cc1)NC(=O)[C@H](CC(C)C)NC(=O)[C@H](CCCNC(=N)N)NC(=O)[C@H](CC(C)C)NC(=O)[C@H](CCCCN)NC(=O)CNC3=O)C(=O)N[C@@H](CO)C(=O)NCC(=O)N[C@@H](Cc1ccccc1)C(=O)N2 [C.geo1[C24Cys(Acm)]] | 70 | 
2 | CC(C)C[C@@H]1NC(=O)[C@H](CCCCN)NC(=O)CNC(=O)[C@@H]2CSSC[C@@H]3NC(=O)[C@H](Cc4ccccc4)NC(=O)CNC(=O)[C@H](CO)NC(=O)[C@H](CSSC[C@H](NC(=O)[C@H](Cc4c[nH]c5ccccc45)NC(=O)CN)C(=O)NCC(=O)N[C@@H](CC(=O)O)C(=O)N4C[C@H](O)C[C@H]4C(=O)NCC(=O)N[C@@H](C)C(=O)N[C@@H]([C@@H](C)O)C(=O)N2)NC(=O)[C@H](CSSC[C@@H](C(=O)N[C@@H](CCCCN)C(=O)N[C@@H](CC(=O)O)C(=O)N[C@@H](CCCCN)C(=O)N[C@@H](CO)C(=O)N[C@@H](CO)C(=O)N[C@@H](C)C(=O)O)NC(=O)[C@H]([C@@H](C)O)NC(=O)[C@H](CCCCN)NC(=O)[C@H]([C@@H](C)O)NC(=O)[C@H](Cc2ccc(O)cc2)NC(=O)[C@H](CCC(=O)O)NC(=O)[C@H](CC(=O)O)NC3=O)NC(=O)[C@H](Cc2ccc(O)cc2)NC(=O)[C@H](CC(C)C)NC(=O)[C@H](CCCNC(=N)N)NC1=O [C.geo1[C24E]] (H-GWCGD[Hyp]GATCGKLRLYCCSGFCDEYTKTCKDKSSA-OH; disulfide 3-18, 10-22, 17-29) | 15 | 
3 | CC(C)C[C@@H]1NC(=O)[C@H](CCCCN)NC(=O)CNC(=O)[C@@H]2CSSC[C@@H]3NC(=O)[C@H](Cc4ccccc4)NC(=O)CNC(=O)[C@H](CO)NC(=O)[C@H](CSSC[C@H](NC(=O)[C@H](Cc4c[nH]c5ccccc45)NC(=O)CN)C(=O)NCC(=O)N[C@@H](CC(=O)O)C(=O)N4C[C@H](O)C[C@H]4C(=O)NCC(=O)N[C@@H](C)C(=O)N[C@@H]([C@@H](C)O)C(=O)N2)NC(=O)[C@H](CSSC[C@@H](C(=O)N[C@@H](CCCCN)C(=O)N[C@@H](CC(=O)O)C(=O)N[C@@H](CCCCN)C(=O)N[C@@H](CO)C(=O)N[C@@H](CO)C(=O)N[C@@H](C)C(=O)O)NC(=O)[C@H]([C@@H](C)O)NC(=O)[C@H](CCCCN)NC(=O)[C@H]([C@@H](C)O)NC(=O)[C@H](Cc2ccc(O)cc2)NC(=O)[C@H](CCCCN)NC(=O)[C@H](CC(=O)O)NC3=O)NC(=O)[C@H](Cc2ccc(O)cc2)NC(=O)[C@H](CC(C)C)NC(=O)[C@H](CCCNC(=N)N)NC1=O [C.geo1[C24K]] (H-GWCGD[Hyp]GATCGKLRLYCCSGFCDKYTKTCKDKSSA-OH; disulfide 3-18, 10-22, 17-29) | 20 | 
4 | I: GWCGD[Hyp]GATCGKLRLYCCSGFCDCYTKTCKDKSSA / II: GWCGD[Hyp]GATCGKLRLYCCSGFCDCYTKTCKDKSSA (disulfide I:3-I:18, I:10-I:22, I:17-I:29, I:24-II:24, II:3-II:18, II:10-II:22, II:17-II:29) [C.geo1[dimer]] |  | inhibition at 30 µM (rNav 1.7; [1]): 70%
5 | CVGRDSKCGPPPCCMGMTCNYERVRKCT [SEQ ID 025] |  | activity against hNav1.7 (hNaV1.7): not active; activity against rNav1.7 (rNav 1.7): not active
6 | CC(C)C[C@@H]1NC(=O)[C@H](CCCCN)NC(=O)CNC(=O)[C@@H]2CSSC[C@@H]3NC(=O)[C@H](Cc4ccccc4)NC(=O)CNC(=O)[C@H](CO)NC(=O)[C@H](CSSC[C@H](NC(=O)[C@H](Cc4c[nH]c5ccccc45)NC(=O)CN)C(=O)NCC(=O)N[C@@H](CC(=O)O)C(=O)N[C@@H](C)C(=O)NCC(=O)N[C@@H](C)C(=O)N[C@@H]([C@@H](C)O)C(=O)N2)NC(=O)[C@H](CSSC[C@@H](C(=O)N[C@@H](CCCCN)C(=O)N[C@@H](CC(=O)O)C(=O)N[C@@H](CCCCN)C(=O)N[C@@H](CO)C(=O)N[C@@H](CO)C(=O)N[C@@H](C)C(=O)O)NC(=O)[C@H]([C@@H](C)O)NC(=O)[C@H](CCCCN)NC(=O)[C@H]([C@@H](C)O)NC(=O)[C@H](Cc2ccc(O)cc2)NC(=O)[C@H](CSSC[C@H](NC(=O)CC[C@H](N)C(=O)O)C(=O)NCC(=O)O)NC(=O)[C@H](CC(=O)O)NC3=O)NC(=O)[C@H](Cc2ccc(O)cc2)NC(=O)[C@H](CC(C)C)NC(=O)[C@H](CCCNC(=N)N)NC1=O [C.geo1[O6A]] (H-GWCGDAGATCGKLRLYCCSGFCDC(Glutathionyl)YTKTCKDKSSA-OH; disulfide 3-18, 10-22, 17-29) | 60 | 
7 | CC(C)C[C@@H]1NC(=O)[C@H](CCCCN)NC(=O)CNC(=O)[C@@H]2CSSC[C@@H]3NC(=O)[C@H](Cc4ccccc4)NC(=O)CNC(=O)[C@H](CO)NC(=O)[C@H](CSSC[C@H](NC(=O)[C@H](Cc4c[nH]c5ccccc45)NC(=O)CN)C(=O)NCC(=O)N[C@@H](CC(=O)O)C(=O)N4C[C@H](O)C[C@H]4C(=O)NCC(=O)N[C@@H](C)C(=O)N[C@@H]([C@@H](C)O)C(=O)N2)NC(=O)[C@H](CSSC[C@@H](C(=O)N[C@@H](CCCCN)C(=O)N[C@@H](CC(=O)O)C(=O)N[C@@H](CCCCN)C(=O)N[C@@H](CO)C(=O)N[C@@H](CO)C(=O)N[C@@H](C)C(=O)O)NC(=O)[C@H]([C@@H](C)O)NC(=O)CNC(=O)[C@H]([C@@H](C)O)NC(=O)[C@H](Cc2ccc(O)cc2)NC(=O)[C@H](CSSC[C@H](NC(=O)CC[C@H](N)C(=O)O)C(=O)NCC(=O)O)NC(=O)[C@H](CC(=O)O)NC3=O)NC(=O)[C@H](Cc2ccc(O)cc2)NC(=O)[C@H](CC(C)C)NC(=O)[C@H](CCCNC(=N)N)NC1=O [C.geeo1[K27G]] | 60 | 
8 | GWCGDOGATCGKLRLYCCSGFCD(Abu)YTKTCKDKS_A [C. geo1[C24Abu,des-Ser34]] |  | % block of NaV1.7 from rat (rNav 1.7): 20%; reversibility of NaV1.7 block (rNav 1.7): quickly reversible
9 | DWCGDAGDACGTLKLRCCSGLCNQYSGTCTG [C. geo2] |  | % block of hNaV1.7 (hNaV1.7): 69%
10 | CC[C@@H]1NC(=O)[C@H](CC(=O)O)NC(=O)[C@@H]2CSSC[C@@H]3NC(=O)[C@H]([C@@H](C)O)NC(=O)[C@H](C)NC(=O)CNC(=O)[C@@H]4C[C@@H](O)CN4C(=O)[C@H](CC(=O)O)NC(=O)CNC(=O)[C@@H](NC(=O)[C@H](Cc4c[nH]c5ccccc45)NC(=O)CN)CSSC[C@H](NC(=O)[C@H](CSSC[C@@H](C(=O)N[C@@H](CCCCN)C(=O)N[C@@H](CC(=O)O)C(=O)N[C@@H](CCCCN)C(=O)N[C@@H](CO)C(=O)N[C@@H](CO)C(=O)N[C@@H](C)C(=O)O)NC(=O)[C@H]([C@@H](C)O)NC(=O)[C@H](CCCCN)NC(=O)[C@H]([C@@H](C)O)NC(=O)[C@H](Cc4ccc(O)cc4)NC1=O)NC(=O)[C@H](Cc1ccc(O)cc1)NC(=O)[C@H](CC(C)C)NC(=O)[C@H](CCCNC(=N)N)NC(=O)[C@H](CC(C)C)NC(=O)[C@H](CCCCN)NC(=O)CNC3=O)C(=O)N[C@@H](CO)C(=O)NCC(=O)N[C@@H](Cc1ccccc1)C(=O)N2 [C.geo1[C24Abu]] | 20 | 
11 | CC(C)C[C@@H]1NC(=O)[C@H](CCCCN)NC(=O)CNC(=O)[C@@H]2CSSC[C@@H]3NC(=O)[C@H](Cc4ccccc4)NC(=O)CNC(=O)[C@H](CO)NC(=O)[C@H](CSSC[C@H](NC(=O)[C@H](Cc4c[nH]c5ccccc45)NC(=O)CN)C(=O)NCC(=O)N[C@@H](CC(=O)O)C(=O)N4C[C@H](O)C[C@H]4C(=O)NCC(=O)N[C@@H](C)C(=O)N[C@@H]([C@@H](C)O)C(=O)N2)NC(=O)[C@H](CSSC[C@@H](C(=O)N[C@@H](CCCCN)C(=O)N[C@@H](CC(=O)O)C(=O)N[C@@H](CCCCN)C(=O)N[C@@H](CO)C(=O)N[C@@H](CO)C(=O)N[C@@H](C)C(=O)O)NC(=O)[C@H]([C@@H](C)O)NC(=O)[C@H](CCCCN)NC(=O)[C@H]([C@@H](C)O)NC(=O)[C@H](Cc2ccc(O)cc2)NC(=O)[C@H](CO)NC(=O)[C@H](CC(=O)O)NC3=O)NC(=O)[C@H](Cc2ccc(O)cc2)NC(=O)[C@H](CC(C)C)NC(=O)[C@H](CCCNC(=N)N)NC1=O [C.geo1[C24S]] (H-GWCGD[Hyp]GATCGKLRLYCCSGFCDSYTKTCKDKSSA-OH; disulfide 3-18, 10-22, 17-29) | 20 | 
